Assays:
[1] = acrylic acid at 20° C.
[2] = methyl methacrylate at 20° C.

Oc1ccc(O)cc1 [crystalline hydroquinone, hydroquinone]
dissolution time in acrylic acid [1]: 10 min
dissolution time in methyl methacrylate [2]: 3 min
